# According to patent publication US20220168427A1 (Ranok Therapeutics (Hangzhou) Co. Ltd., priority 2019, published 2022):
# Legend:
# [1] = target: T1, BRD4 (BD1+BD2) (Homo sapiens, UniProt O60885); conditions: read-out: BRD4 Binding Potency
# T1 construct: 1.8 μg/ml recombinant BRD4 (BD1+BD2 domains) protein
# [2] = target: HSP90α (Homo sapiens, UniProt P07900); test: HSP90α Binding Fluorescent Polarization (FP) Assay; conditions: competition with FITC-geldanamycin; read-out: HSP90 Binding Potency
# Method in brief: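 Competitive FP assay in which compound displaces FITC-geldanamycin from recombinant HSP90α (28 μg/ml before addition) in BSA-containing buffer. Compounds in 3-fold series from 40 μM to 2.0 nM (dilution-plate concentrations), tested in duplicate. Readings after 30, 60 and 120 min at 25 °C; background-subtracted mP fitted to four-parameter log[inhibitor]-response curve.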
# [3] = target: T2, BRD4 (Homo sapiens, UniProt O60885); test: BRD4 Degradation Flow Cytometry Assay in MV4-11 cells; assay type: cell-based; conditions: 24 hr
# T2 construct: endogenous in cells; host or cells: MV4-11
# Experimental: Protein Degradation Flow Cytometry
# MV4-11 cells were plated in a 24-well tissue culture plate at a density of 350,000 cells/450 μL/well and incubated in 37° C./5% CO2 for 1 hr. Cells were then treated with compounds at various concentrations and incubated in 37° C./5% CO2 for 24 hr. Cells were harvested, washed once, counted and 200 μL of 1% paraformaldehyde/PBS was added and incubated for 15 min at room temperature. 200 μL of 1×PBS/0.4% Triton X-100 was added and incubated for 15 min at 4° C. Cells were washed three times and resuspended in 50 μL of 1×PBS/0.2% Triton X-100. 2 μL/10^6 cells of anti-BRD4 antibody (ABCAM, #128874) was added and mixed by pipetting up and down. Cells were incubated for 30 min at room temperature in the dark, washed three times and resuspended in 50 μL of 1×PBS/0.2% Triton X-100. Goat anti-rabbit IgG H&L antibody (1:2000 dilution) was added and mixed by pipetting up and down and incubated for 30 min at room temperature in the dark. Finally, cells were washed three times and resuspended in 200 μL of PBS for flow cytometric analysis.
# (§1) % Inhibition=100−(D−B)/(S−B)*100%.
# S: The fluorescence intensity of MV4-11 with antibody
# D: The fluorescence intensity in the presence of different compound dilutions with antibody
# B: The fluorescence intensity of MV4-11 only
# [4] = tested on: MV4-11 cells; test: MV4-11 Cell Cytotoxicity Assay; assay type: cell-based, human; conditions: CCK-8; for IC50 at 72 h: human, MV4-11 cells; for IC50: 72 hr
# From the text: as §1
# S: The absorbance of the maximum (cells with DMSO)
# B: The absorbance of the minimum (medium with DMSO)
# [5] = tested on: SU-DHL-4 xenograft; test: SU-DHL-4 DLBCL tumor xenograft study in mice
# Experimental: Tumor Xenograft Studies in Mice
# 5×10^6 MV-4-11 or 1×10^7 SU-DHL-4 cells were collected and re-suspended in 0.1 mL of serum-free media with Matrigel (1:1 v/v) per mouse for subcutaneous inoculation in isoflurane anesthetized male BALB/c nude or C.B-17 scid mice, respectively (treated in accordance with AAALAC animal welfare guidelines). When the average tumor volumes reached 100-200 mm^3, tumor volume outliers were removed and the remaining animals randomly divided into groups of 6-8 with similar average tumor volumes in each group. […] Animals were intravenously dosed at 25 mg/kg, 50 mg/kg or 100 mg/kg 1×/week for 3 or 4 weeks. The appearance and behavior of each mouse was observed and recorded daily. Body weights and tumor volumes were measured and recorded every 2-4 days and the results were expressed as group means±SEM. Pairwise statistical comparisons between groups were performed by one-way ANOVA, and p<0.05 was considered statistically significant.
# [6] = 100 mg/kg intravenously 1×/week, after 4 weeks of dosing
Molecule,IC50 [1] [nM],IC50 [2] [nM],IC50 at 72 h [4] [nM],also measured
"Cc1sc2c(c1C)C(c1ccc(Cl)cc1)=N[C@H](CC(=O)N1CCC(CN3CCN(Cc4ccc(-n5c(O)nnc5-c5cc(C(C)C)c(O)cc5O)cc4)CC3)CC1)c1nnc(C)n1-2 [Compound 5, 2-((6R)-4-(4-chlorophenyl)-2,3,9-trimethyl-6H-thieno[3,2-f][1,2,4]triazolo[4,3-a][1,4]diazepin-6-yl)-1-(4-((4-(4-(3-(2,4-dihydroxy-5-isopropylphenyl)-5-hydroxy-4H-1,2,4-triazol-4-yl)benzyl)piperazin-1-yl)methyl)piperidin-1-yl)ethanone, trifluoroacetic acid]",> 1000,100 to 1000,–,"BRD4 degradation in flow cytometry assay, in words [3]: does not degrade BRD4"
"Cc1sc2c(c1C)C(c1ccc(Cl)cc1)=N[C@@H](CC(=O)NCC(=O)NCC1CCN(C(=O)C3CCN(Cc4ccc(-n5c(O)nnc5-c5cc(C(C)C)c(O)cc5O)cc4)CC3)C1)c1nnc(C)n1-2 (stereo partly drawn) [Compound 47, 2-((S)-4-(4-chlorophenyl)-2,3,9-trimethyl-6H-thieno[3,2-f][1,2,4]triazolo[4,3-a][1,4]diazepin-6-yl)-N-(2-(((1-(1-(4-(3-(2,4-dihydroxy-5-isopropylphenyl)-5-hydroxy-4H-1,2,4-triazol-4-yl)benzyl)piperidine-4-carbonyl)pyrrolidin-3-yl)methyl)amino)-2-oxoethyl)acetamide, trifluoroacetic acid]",< 100,< 100,< 100,"degradation of BRD2, BRD3 and BRD4, in words ([3]; flow cytometry): only induced significant degradation of BRD4"
"CCc1cc(-c2nnc(C(=O)NCC(F)(F)F)n2-c2ccc(CN3CCN(CC4CCN(C(=O)C[C@@H]5N=C(c6ccc(Cl)cc6)c6c(sc(C)c6C)-n6c(C)nnc65)CC4)CC3)cc2)c(O)cc1O.Cl [Compound 78, 4-(4-((4-((1-(2-((6S)-4-(4-chlorophenyl)-2,3,9-trimethyl-6H-thieno[3,2-f][1,2,4]triazolo[4,3-a][1,4]diazepin-6-yl)acetyl)piperidin-4-yl)methyl)piperazin-1-yl)methyl)phenyl)-5-(5-ethyl-2,4-dihydroxyphenyl)-N-(2,2,2-trifluoroethyl)-4H-1,2,4-triazole-3-carboxamide hydrochloride]",100 to 1000,100 to 1000,–,"tumor growth inhibition [5, 6]: significant tumor growth inhibition; tumor vs control (T/C) value [5, 6]: 28%; animal deaths and body weights ([5]; any dose level): No animal deaths or significant effects on body weights were observed"
COc1cccc(-c2cc(C(=O)Nc3ccc(-c4ccc(OC5CCN(C(=O)CNC(=O)C[C@@H]6N=C(c7ccc(Cl)cc7)c7c(sc(C)c7C)-n7c(C)nnc76)CC5)cc4OCCN(C)C)cc3)ccc2OC)c1 [Compound 138],< 100,> 1000,< 100,–
"COc1cccc(-c2cc(C(=O)Nc3ccc(-c4ccc(OC5CCN(CC[C@@H]6N=C(c7ccc(Cl)cc7)c7c(sc(C)c7C)-n7c(C)nnc76)CC5)cc4OCCN(C)C)cc3)ccc2OC)c1 [Compound 139, (S)—N-(4′-((1-(2-(4-(4-chlorophenyl)-2,3,9-trimethyl-6H-thieno[3,2-f][1,2,4]triazolo[4,3-a][1,4]diazepin-6-yl)ethyl)piperidin-4-yl)oxy)-2′-(2-(dimethylamino)ethoxy)-[1,1′-biphenyl]-4-yl)-3′,6-dimethoxy-[1,1′-biphenyl]-3-carboxamide]",100 to 1000,> 1000,–,IC50 [4]: 100 to 1000 nM
COc1cccc(-c2cc(C(=O)Nc3ccc(-c4ccc(OC5CCN(CC[C@@H]6N=C(c7ccc(Cl)cc7)c7c(sc(C)c7C)-n7c(C)nnc76)CC5)cc4OCCN(C)C)cc3)ccc2OC)c1 [Compound 140],> 1000,> 1000,–,IC50 [4]: > 1000 nM
"Cc1sc2c(c1C)C(c1ccc(Cl)cc1)=N[C@@H](CC(=O)N1CCN(Cc3ccc4c(c3)CN(C(=O)c3cc(C(C)C)c(O)cc3O)C4)CC1)c1nnc(C)n1-2 [Compound 141, (S)-2-(4-(4-chlorophenyl)-2,3,9-trimethyl-6H-thieno[3,2-f][1,2,4]triazolo[4,3-a][1,4]diazepin-6-yl)-1-(4-((2-(2,4-dihydroxy-5-isopropylbenzoyl)isoindolin-5-yl)methyl)piperazin-1-yl)ethan-1-one]",100 to 1000,100 to 1000,100 to 1000,–
"CCc1cc(C(=O)N2Cc3ccc(CN4CCN(C(=O)C[C@@H]5N=C(c6ccc(Cl)cc6)c6c(sc(C)c6C)-n6c(C)nnc65)CC4)cc3C2)c(O)cc1O [Compound 142, (S)-2-(4-(4-chlorophenyl)-2,3,9-trimethyl-6H-thieno[3,2-f][1,2,4]triazolo[4,3-a][1,4]diazepin-6-yl)-1-(4-((2-(5-ethyl-2,4-dihydroxybenzoyl)isoindolin-5-yl)methyl)piperazin-1-yl)ethan-1-one]",100 to 1000,100 to 1000,100 to 1000,–
"Cc1sc2c(c1C)C(c1ccc(Cl)cc1)=N[C@@H](CC(=O)N1CCN(Cc3ccc4c(c3)CN(C(=O)c3ccc(O)cc3O)C4)CC1)c1nnc(C)n1-2 [Compound 143, (S)-2-(4-(4-chlorophenyl)-2,3,9-trimethyl-6H-thieno[3,2-f][1,2,4]triazolo[4,3-a][1,4]diazepin-6-yl)-1-(4-((2-(2,4-dihydroxybenzoyl)isoindolin-5-yl)methyl)piperazin-1-yl)ethan-1-one]",> 1000,100 to 1000,> 1000,–
"Cc1cc(C(=O)N2Cc3ccc(CN4CCN(C(=O)C[C@@H]5N=C(c6ccc(Cl)cc6)c6c(sc(C)c6C)-n6c(C)nnc65)CC4)cc3C2)c(O)cc1O [Compound 144, (S)-2-(4-(4-chlorophenyl)-2,3,9-trimethyl-6H-thieno[3,2-f][1,2,4]triazolo[4,3-a][1,4]diazepin-6-yl)-1-(4-((2-(2,4-dihydroxy-5-methylbenzoyl)isoindolin-5-yl)methyl)piperazin-1-yl)ethan-1-one]",100 to 1000,100 to 1000,100 to 1000,–
"CCCc1cc(C(=O)N2Cc3ccc(CN4CCN(C(=O)C[C@@H]5N=C(c6ccc(Cl)cc6)c6c(sc(C)c6C)-n6c(C)nnc65)CC4)cc3C2)c(O)cc1O [Compound 145, (S)-2-(4-(4-chlorophenyl)-2,3,9-trimethyl-6H-thieno[3,2-f][1,2,4]triazolo[4,3-a][1,4]diazepin-6-yl)-1-(4-((2-(2,4-dihydroxy-5-propylbenzoyl)isoindolin-5-yl)methyl)piperazin-1-yl)ethan-1-one]",> 1000,100 to 1000,> 1000,–
"CC(=O)N1CCC(CN2CCN(Cc3ccc(-n4c(O)nnc4-c4cc(C(C)C)c(O)cc4O)cc3)CC2)CC1 [HSP90 binder, 1-(4-((4-(4-(3-(2,4-dihydroxy-5-isopropylphenyl)-5-hydroxy-4H-1,2,4-triazol-4-yl)benzyl)piperazin-1-yl)methyl)piperidin-1-yl)ethan-1-one, reference compound]",–,–,–,"BRD4 degradation in flow cytometry assay, in words [3]: no substantial BRD4 degradation was observed"
"(S)—N-(4′-((1-((S)-(2-(4-(4-chlorophenyl)-2,3,9-trimethyl-6H-thieno[3,2-f][1,2,4]triazolo[4,3-a][1,4]diazepin-6-yl)acetyl)glycyl)piperidin-4-yl)oxy)-2′-(2-(dimethylamino)ethoxy)-[1,1′-biphenyl]-4-yl)-3′,6-dimethoxy-[1,1′-biphenyl]-3-carboxamide [Compound 137]",100 to 1000,> 1000,–,IC50 [4]: 100 to 1000 nM
"(S)—N-(4′-((1-((S)-(2-(4-(4-chlorophenyl)-2,3,9-trimethyl-6H-thieno[3,2-f][1,2,4]triazolo[4,3-a][1,4]diazepin-6-yl)acetyl)glycyl)piperidin-4-yl)oxy)-2′-hydroxy-[1,1′-biphenyl]-4-yl)-3′,6-dimethoxy-[1,1′-biphenyl]-3-carboxamide [Compound 133]",> 1000,> 1000,–,IC50 [4]: > 1000 nM
